“Also recorded” adds a separate entry of the source.
Assays:
Arabidopsis plants [1] = test: Foliar spray application, herbicidal activity; format: in vivo; settings: 2 mL spray, 5 mM active ingredient, 0.02% (v/v) Tween 20, pH 6.7
Description: The inventors tested a range of compounds for their potential herbicidal activity. These consisted of several nonhydrolysable ATP analogues as well as nonhydrolysable analogues of GTP, another nucleotide triphosphate. Arabidopsis plants were grown hydroponically for 2 weeks as described in Example 6B. These plants, still attached to the polyurethane foam discs, were then transferred to phytatrays that contained sand. Plants grown under high humidity conditions, achieved in these enclosed phytatrays, tend to have poor or no development of the waxy cuticle and so are ideal for spray application of solutions with the aid of common surfactants like Tween 20. The plants in each tray were sprayed with 2 mL of an aqueous solution adjusted to pH 6.7 with KOH and containing 5 mM active ingredient and 0.02% (v/v) Tween 20. Control plants were sprayed with the same solution containing only Tween 20 but no active ingredient.

[2] = test system: Arabidopsis thaliana cell suspension cultures; format: cell-based; settings: for cell viability / cell death, in words: ADP 1 mM, AMP 1 mM, ATP 1 mM, glucose-6-phosphate 100 mM, boiled apyrase 50 units/ml, boiled hexokinase 200 units/ml with 100 mM glucose
Description: A. thaliana cell cultures were grown as described in example 1. Aliquots of the cell suspension (1.5 mL) were treated with a final concentration of 0, 20, 50, or 100 units/mL of apyrase. […] The dead cells had become buoyant and adhered to the walls of the vials, forming a ring just above the edge of the swirling medium. The ring of cells was sometimes dislodged and fell into the medium, resulting in apyrase-treated cultures having flakes of dead cells at the bottom of the vials.
To quantify the effect of apyrase on cell viability, the ability of the cells to grow and multiply subsequent to treatment was measured after diluting the cultures by over 30 times in fresh medium not containing any additives. This was achieved by transferring the cells treated for 3 days to 50 mL of fresh growth medium and allowing them to grow for a further 4 days. At the end of this period, triplicate 1 mL aliquots were sampled from the cultures and the volume of the cells was measured and expressed as a percentage of the culture volume. The method used to determine the packed cell volume was as follows: 1 mL cell culture aliquots were placed in 1.5 mL microfuge tubes and the cells gently compacted by centrifuging (1000 rpm., 10 minutes) in a swing-out rotor (Grundrotor 11030; Sigma laborzentrifugen GmbH, Oestrode, Germany). The level of the cells was marked on the wall of the tube and the volume of cells determined by measuring the volume of water needed to fill the tube to the marked level. The packed cell volume was expressed as the volume occupied by cells as a percentage of 1000 μL.
In each case the error bars represent the standard deviation.

tobacco leaves = test: Leaf infiltration, tobacco; format: in vivo, Nicotiana tabacum
Description: (§1) Tobacco (Nicotiana tabacum), Arabidopsis, and bean (Phaseolus vulgaris) plants were sown in soil and raised in a growth cabinet with a 16-hour photoperiod at 20° C. and 8 hours of darkness at 15° C. The relative humidity was maintained at 60% and the photon flux density was 250 μmolm^−2 s^−1. […] Only the cotyledons of bean plants were treated. The abaxial surface of a small zone of leaf tissue was treated by infiltrating the apoplast with the solution using a syringe and hypodermic needle. The three test solutions had the following concentrations of either: 0.5 units/μL apyrase, 1.85 units/μL hexokinase plus 100 mM glucose, or 1-5 mM AMP-PCP (pH 6.5).

[3] = test system: Black Mexican sweet corn cells; test: Cell viability of corn suspension cells; format: cell-based, Zea mays; settings: 1 mM ATP, 1 mM AMP-PCP, 100 units/mL apyrase, 200 units/mL hexokinase; 100 mM glucose in culture
[4] = test system: Tobacco (Nicotiana tabacum), Arabidopsis, and bean (Phaseolus vulgaris) plants; test: Leaf infiltration of extracellular ATP depletion systems, whole plants; format: in vivo; settings: 0.5 units/μL apyrase, 1.85 units/μL hexokinase plus 100 mM glucose, 1-5 mM AMP-PCP (pH 6.5); ATP (pH 6.5)
Description: as §1
The concentrations used were the same as defined above unless stated otherwise.

tobacco plants = test: Foliar spray on soil-grown tobacco plants; settings: 5 mM in 0.02% Tween 20, 2 mL spray, three days after treatment
[5] = test system: Arabidopsis cell suspension cultures; test: 2-D DIGE protein spot abundance, AMP-PCP treatment; format: cell-based; settings: 50 μM AMP-PCP vs water, 72 hours
Arabidopsis plants [6] = settings: co-administered with cycloheximide; cited from earlier work

In the case of `Nc1nc2c(ncn2[C@@H]2O[C@H](COP(=O)(O)OP(=O)(O)OP(O)(O)=S)[C@@H](O)[C@H]2O)c(=O)[nH]1` [GTP-γ-S, guanosine 5′-(γ-thio)triphosphate], the “Effects on Arabidopsis plants after foliar application” value (shortened to “Effects on Arabidopsis plants”) (Arabidopsis plants [1]) is reported as “has herbicidal properties; also recorded: Phytotoxic”.
With `Nc1ncnc2c1ncn2[C@@H]1O[C@H](COP(=O)(O)O)[C@@H](O)[C@H]1O` [AMP] the “cell viability / cell death, in words” value [2] was “did not result in any change in cell viability”.
With `Nc1ncnc2c1ncn2C1OC(COP(=O)(O)OP(=O)(O)CP(=O)(O)O)C(O)C1O` (stereo not drawn) [AMP-PCP, β,γ-methyleneadenosine 5′-triphosphate] the “local tissue death after infiltration of tobacco leaves” value (tobacco leaves; 1 mM AMP-PCP, 1 mM ATP, apyrase, hexokinase plus glucose) was “caused localised tissue death”, the “state of tobacco plant after treatment of a leaf” value (tobacco leaves; 5 mM AMP-PCP or equivalent amount of ATP, after 4 days) was “not only had the treated leaf died (white arrowhead), but so too had portions of some upper, untreated leaves” and the “viability of corn cells” value [3] was “caused significant cell death”. For the same molecule, the “necrotic lesions after local leaf infiltration” value [4] was “development of necrotic lesions in the area where the application was made within 2 days of treatment; also recorded: localised necrotic lesions”, the “cell viability with increasing concentration (dose-response), in words” value ([2]; apyrase 0-100 units/mL, hexokinase 0-200 units/mL with 100 mM glucose, AMP-PCP 0-1.5 mM) was “loss in cell viability” and the “state of tobacco plants” value (tobacco plants) was “started to die”. The “Ratio, spot 613 H84453 Probable heat shock protein [imported]” value [5] was −1.26, the “Ratio, spot 690 gi30693102 NADH dehydrogenase (ubiquinone), mitochondrial” value [5] was −1.44 and the “Ratio, spot 703 Luminal binding protein 1 precursor (BiP-1)” value [5] was 1.29. The “Ratio, spot 707 Luminal binding protein 1 precursor (BiP-1)” value [5] was 1.45, the “Ratio, spot 740 Heat shock cognate 70 kDa protein 2 (hsc70-2)” value [5] was −1.22 and the “Ratio, spot 778 gi1072473 dnaK-type molecular chaperone hsc70.1” value [5] was 1.15. For the same molecule, the “Ratio, spot 795 gi15232682 Heat shock protein hsc70-3” value [5] was 1.2, the “Ratio, spot 906 gi15219234 ATPase 70 kDa subunit-related protein” value [5] was 1.19 and the “Ratio, spot 1063 gi30687521 Putative protein disulfide isomerase” value [5] was 1.24. The “Ratio, spot 1069 gi15232827 Threonine ammonia lyase” value [5] was −1.23, the “Ratio, spot 1074 gi11094242 Cytosolic phosphoglucose isomerase” value [5] was 1.2 and the “Ratio, spot 1098 gi288063 Ketol-acid reductoisomerase” value [5] was −1.12. For the same molecule, the “Ratio, spot 1135 gi9082270 Alanine aminotransferase” value [5] was 1.2, the “Ratio, spot 1148 gi21593375 Unknown protein” value [5] was 1.24 and the “Ratio, spot 1155 gi30684419 Dihydrolipoamide dehydrogenase 2, mitochondrial” value [5] was 1.34. For the same molecule, the “Ratio, spot 1187 gi21954071 Putative alanine aminotransferase” value [5] was 1.41, the “Ratio, spot 1196 gi14916970 ATP synthase alpha chain, mitochondrial” value [5] was 1.31 and the “Ratio, spot 1200 gi15241168 Tubulin alpha-3/alpha-5 chain (TUA3)” value [5] was 1.35. For the same molecule, the “Ratio, spot 1205 gi2493132 Vacuolar ATP synthase subunit B isoform 2” value [5] was 1.24, the “Ratio, spot 1229 H+-transporting ATP synthase beta chain” value [5] was 1.4 and the “Ratio, spot 1241 Enolase (2-phospho-D-glycerate hydrolase)” value [5] was 1.39. For the same molecule, the “Ratio, spot 1245 H+-transporting ATP synthase beta chain” value [5] was 1.23, the “Ratio, spot 1254 gi15227559 Tubulin beta-7 chain” value [5] was −1.2 and the “Ratio, spot 1257 Enolase (2-phospho-D-glycerate hydrolase)” value [5] was 1.51. For the same molecule, the “Ratio, spot 1264 Enolase (2-phospho-D-glycerate hydrolase)” value [5] was 1.32, the “Ratio, spot 1281 gi15234516 Putative thioredoxin” value [5] was 1.23 and the “Ratio, spot 1282 Adenosylhomocysteinase” value [5] was 1.46. The “Ratio, spot 1292 Adenosylhomocysteinase” value [5] was 1.29, the “Ratio, spot 1439 gi14594802 Translation initiation factor elf-4A1” value [5] was 1.84 and the “Ratio, spot 1460 gi7485313 Hypothetical protein F10M10.120” value [5] was −1.1. The “Ratio, spot 1481 gi15234354 S-adenosylmethionine synthetase 2” value [5] was −1.3, the “Ratio, spot 1497 gi21536853 Putative phosphoglycerate kinase” value [5] was 1.47 and the “Ratio, spot 1516 Putative S-adenosylmethionine synthetase” value [5] was 1.22. For the same molecule, the “Ratio, spot 1649 gi21593388 12-oxophytodienoate reductase (OPR1)” value [5] was −1.22, the “Ratio, spot 1718 gi15229530 Glutamine synthetase-related protein” value [5] was −1.13 and the “Ratio, spot 1748 gi21593240 GAPDH C subunit (GapC)” value [5] was 1.21. The “Ratio, spot 1817 gi3435286 GAPDH C subunit (GapC)” value [5] was 1.13, the “Ratio, spot 1868 gi15226185 Putative fructose-bisphosphate aldolase” value [5] was −1.35 and the “Ratio, spot 1892 gi14334740 Putative fructose-bisphosphate aldolase” value [5] was −1.71. For the same molecule, the “Ratio, spot 1920 gi15237888 Putative NADP-dependent oxidoreductase (P1)” value [5] was −1.45, the “Ratio, spot 1943 gi25283601 Malate dehydrogenase [EC 1.1.1.37], chloroplast” value [5] was 1.22 and the “Ratio, spot 1959 Malate dehydrogenase [NAD], mitochondrial” value [5] was −1.11. The “Ratio, spot 1964 gi15232468 Malate dehydrogenase [NAD], mitochondrial” value [5] was 1.21, the “Ratio, spot 2221 gi21593226 Putative esterase D” value [5] was −1.24 and the “Ratio, spot 2282 gi15228883 Expressed protein” value [5] was −1.74. For the same molecule, the “Ratio, spot 2370 gi18390982 ATP-dependent Clp protease proteolytic subunit” value [5] was 1.38, the “Ratio, spot 2422 gi20260140 Multicatalytic endopeptidase complex alpha subunit” value [5] was −1.21 and the “Ratio, spot 2443 L-ascorbate peroxidase 1, cytosolic (APX1)” value [5] was −2.51. For the same molecule, the “Ratio, spot 2552 L-ascorbate peroxidase 1, cytosolic (APX1)” value [5] was −1.47, the “Ratio, spot 2562 gi15224582 Putative glutathione S-transferase” value [5] was 1.4 and the “Ratio, spot 2605 gi15239652 Putative quinone reductase” value [5] was 1.38. For the same molecule, the “Ratio, spot 2626 gi15228805 20S proteasome beta subunit D (PBD1)” value [5] was 1.14, the “Ratio, spot 2690 gi20138157 Phospholipid hydroperoxide glutathione peroxidase” value [5] was 1.21 and the “Ratio, spot 2734 gi18412406 Expressed protein” value [5] was −1.93. The “Ratio, spot 2832 gi30697295 Actin depolymerizing factor 3-like prptein” value [5] was −1.29 and the “Ratio, spot 2842 gi15218373 40S ribosomal protein S12 (RPS12A)” value [5] was −1.3.
For `Nc1ncnc2c1ncn2[C@@H]1O[C@H](COP(=O)(O)OP(=O)(O)OP(O)(O)=S)[C@@H](O)[C@H]1O` [ATP-γ-S, adenosine 5′-(γ-thio)triphosphate], the “Effects on Arabidopsis plants” value (Arabidopsis plants [1]) was “had herbicidal activity; also recorded: Phytotoxic”.
With `Nc1ncnc2c1ncn2[C@@H]1O[C@H](COP(=O)(O)OP(=O)(O)O)[C@@H](O)[C@H]1O` [ADP, adenosine 5′-diphosphate] the “Effects on Arabidopsis plants” value (Arabidopsis plants [1]) was “not phytotoxic and None”.
With `Nc1ncnc2c1ncn2[C@@H]1O[C@H](COP(=O)(O)OP(=O)(O)NP(=O)(O)O)[C@@H](O)[C@H]1O` [AMP-PNP, adenosine 5′-(β,γ-imido)triphosphate] the “Effects on Arabidopsis plants” value (Arabidopsis plants [1]) was “had herbicidal activity; also recorded: Phytotoxic”.
For `O=C[C@H](O)[C@@H](O)[C@H](O)[C@H](O)COP(=O)(O)O` [glucose-6-phosphate], the “cell viability / cell death, in words” value [2] was “did not affect cell viability”.
With `[Na+].[Na+].[Na+].[O-]P([O-])([O-])=S` [NaPO3S, sodium thiophosphate] the “Effects on Arabidopsis plants” value (Arabidopsis plants [1]) was “did not cause death and None”.
For `Nc1nc2c(ncn2[C@@H]2O[C@H](COP(=O)(O)OP(=O)(O)OP(=O)(O)O)[C@@H](O)[C@H]2O)c(=O)[nH]1` [GTP, guanosine 5′-triphosphate], the “Effects on Arabidopsis plants” value (Arabidopsis plants [1]) was “does not and None”.
In the case of `Nc1ncnc2c1ncn2[C@@H]1O[C@H](COP(=O)(O)CP(=O)(O)O)[C@@H](O)[C@H]1O` [α,β-methyladenosine 5′ diphosphate], the “cycloheximide-resistance of plants over-expressing ecto-ATPase” value (Arabidopsis plants [6]) is listed as “lost their cycloheximide-resistance”.

— US20060265776A1, “Viability” (priority 2003, published 2006)
